From publication PMC11062899, “De novo development of small cyclic peptides that are orally bioavailable” (Nature Chemical Biology, 2023)
“And” between values parts separate entries of the source, which are not always exact repeats. Identical values can stand only once. Like-named read-outs stand apart in the source and are kept apart here.

Assays:
[1] = molecular target: human α-thrombin (Homo sapiens, UniProt P00734); experiment: Protease inhibition, Ki for human α-thrombin (fluorogenic substrate Z-Gly-Gly-Arg-AMC); format: biochemical; details: human alpha thrombin; for Slope normalized to DMSO (proteolytic substrate cleavage over time): replicates R1-R3
Outline: (§1)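 Ki values come from Cheng–Prusoff correction of IC50, itself fitted by four-parameter logistic regression of activity versus a no-peptide control. Assays used 2 nM human or 3 nM rat thrombin, 50 μM Z-Gly-Gly-Arg-AMC, 30 min kinetic fluorescence at 25 °C.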

[2] = molecular target: T1, rat α-thrombin (Rattus norvegicus, UniProt P18292); experiment: Protease inhibition, Ki for rat α-thrombin (fluorogenic substrate Z-Gly-Gly-Arg-AMC); format: biochemical; details: rat alpha thrombin; for Slope normalized to DMSO (proteolytic substrate cleavage over time): replicates R1-R3
T1 construct: rat α-thrombin (Molecular Innovations) were used at final concentrations of 2 nM and 3 nM; purchased Molecular Innovations
Outline: as §1

[3] = molecular target: T2, porcine pepsin (Sus scrofa, UniProt P00791); experiment: Peptide stability in simulated gastric fluid (SGF); format: in vitro ADME
T2 construct: 0.32 g of porcine pepsin (Sigma-Aldrich, P7125) was dissolved under gentle agitation; purchased Sigma-Aldrich P7125
T2 sequence (P00791 60-385): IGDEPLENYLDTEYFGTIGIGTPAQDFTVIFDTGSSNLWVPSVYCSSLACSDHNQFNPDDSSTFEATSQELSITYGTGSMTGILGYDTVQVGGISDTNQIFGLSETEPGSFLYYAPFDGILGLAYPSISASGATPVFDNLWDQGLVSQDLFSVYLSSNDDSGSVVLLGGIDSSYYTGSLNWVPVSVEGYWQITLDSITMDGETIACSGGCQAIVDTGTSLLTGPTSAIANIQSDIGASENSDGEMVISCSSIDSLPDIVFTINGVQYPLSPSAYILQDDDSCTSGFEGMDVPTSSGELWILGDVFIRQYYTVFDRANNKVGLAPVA
Outline: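 Peptide from a 1 mM DMSO stock was added to fluid pre-warmed at 37 °C. SGF was pH 1.2 NaCl with porcine pepsin (0.32 g per 100 ml), and SIF was pH 6.8 potassium phosphate with porcine pancreatin (1 g per 100 ml). Supernatant peptide was quantified by LC–MS, with residual expressed as T1/T0.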

[4] = Passive artificial membrane permeability (PAMPA)
[5] = Metabolic stability in rat liver microsomes (RLMs); details: for microsomal CLint / half-life: rat

O=C1C[C@H]2CCCN2C(=O)[C@H](Cc2ccccc2)NC(=O)[C@@H](NC(=O)c2ccc(Cl)s2)CCCSCc2cccc(n2)CSCCN1 [compound 35]
Ki ([1]; average of R1-R3, read-out: Ki Average, human alpha thrombin inhibition): 62.8 nM | Slope normalized to DMSO (proteolytic substrate cleavage over time) ([1]; peptide 1.02E-03 uM): 93.6 and 100.9 and 97.6 | Slope normalized to DMSO (proteolytic substrate cleavage over time) ([1]; peptide 1.04E+00 uM): 8.6 and 16.9 and 12.9 | Slope normalized to DMSO (proteolytic substrate cleavage over time) ([1]; peptide 1.27E-04 uM): 93.4 and 102.6 and 100.9 | Slope normalized to DMSO (proteolytic substrate cleavage over time) ([1]; peptide 1.30E-01 uM): 39.5 and 49.3 and 44.8 | Slope normalized to DMSO (proteolytic substrate cleavage over time) ([1]; peptide 1.59E-05 uM): 106.2 and 101.5 and 96.8 | Slope normalized to DMSO (proteolytic substrate cleavage over time) ([1]; peptide 1.63E-02 uM): 75.0 and 77.8 and 78.6 | Slope normalized to DMSO (proteolytic substrate cleavage over time) ([1]; peptide 1.67E+01 uM): -7.7 and 7.5 and 5.3 | Slope normalized to DMSO (proteolytic substrate cleavage over time) ([1]; peptide 2.03E-03 uM): 88.5 and 91.4 and 92.0 | Slope normalized to DMSO (proteolytic substrate cleavage over time) ([1]; peptide 2.08E+00 uM): 6.1 and 11.4 and 10.4 | Slope normalized to DMSO (proteolytic substrate cleavage over time) ([1]; peptide 2.54E-04 uM): 95.8 and 99.6 and 97.3 | Slope normalized to DMSO (proteolytic substrate cleavage over time) ([1]; peptide 2.60E-01 uM): 30.6 and 32.4 and 32.2 | Slope normalized to DMSO (proteolytic substrate cleavage over time) ([1]; peptide 3.18E-05 uM): 97.7 and 98.2 and 93.3 | Slope normalized to DMSO (proteolytic substrate cleavage over time) ([1]; peptide 3.26E-02 uM): 69.6 and 73.9 and 66.3 | Slope normalized to DMSO (proteolytic substrate cleavage over time) ([1]; peptide 3.33E+01 uM): 2.9 and 7.3 and 3.8 | Slope normalized to DMSO (proteolytic substrate cleavage over time) ([1]; peptide 4.07E-03 uM): 82.9 and 85.6 and 85.5 | Slope normalized to DMSO (proteolytic substrate cleavage over time) ([1]; peptide 4.17E+00 uM): 2.6 and 6.0 and 6.1 | Slope normalized to DMSO (proteolytic substrate cleavage over time) ([1]; peptide 5.09E-04 uM): 91.0 and 91.5 and 96.2 | Slope normalized to DMSO (proteolytic substrate cleavage over time) ([1]; peptide 5.21E-01 uM): 17.9 and 15.7 and 18.4 | Slope normalized to DMSO (proteolytic substrate cleavage over time) ([1]; peptide 6.36E-05 uM): 96.3 and 98.6 and 101.5 | Slope normalized to DMSO (proteolytic substrate cleavage over time) ([1]; peptide 6.51E-02 uM): 47.1 and 63.8 and 53.5 | Slope normalized to DMSO (proteolytic substrate cleavage over time) ([1]; peptide 6.67E+01 uM): 2.7 and 9.5 and 7.0 | Slope normalized to DMSO (proteolytic substrate cleavage over time) ([1]; peptide 7.95E-06 uM): 96.2 and 102.7 and 103.6 | Slope normalized to DMSO (proteolytic substrate cleavage over time) ([1]; peptide 8.14E-03 uM): 70.3 and 73.9 and 78.9 | Slope normalized to DMSO (proteolytic substrate cleavage over time) ([1]; peptide 8.33E+00 uM): 3.3 and 5.4 and 3.6 | IC50 ([1]; single replicates R1-R3, read-out: IC50, human alpha thrombin inhibition): 77.8 nM and 89.4 nM and 77.2 nM | Ki ([1]; single replicates R1-R3, read-out: Ki, human alpha thrombin inhibition): 59.9 nM (2×) and 68.9 nM (2×) and 59.5 nM (2×) | Ki ([2]; average of R1-R3, read-out: Ki Average, rat alpha thrombin inhibition): 18.4 nM | Slope normalized to DMSO (proteolytic substrate cleavage over time) ([2]; peptide 1.02E-03 uM): 95.3 and 93.5 and 90.4 | Slope normalized to DMSO (proteolytic substrate cleavage over time) ([2]; peptide 1.04E+00 uM): 8.6 and 8.7 and 5.7 | Slope normalized to DMSO (proteolytic substrate cleavage over time) ([2]; peptide 1.27E-04 uM): 96.6 and 98.1 and 94.9 | Slope normalized to DMSO (proteolytic substrate cleavage over time) ([2]; peptide 1.30E-01 uM): 29.1 and 30.9 and 27.9 | Slope normalized to DMSO (proteolytic substrate cleavage over time) ([2]; peptide 1.59E-05 uM): 99.9 and 100.8 and 98.0 | Slope normalized to DMSO (proteolytic substrate cleavage over time) ([2]; peptide 1.63E-02 uM): 66.4 and 67.5 and 64.5 | Slope normalized to DMSO (proteolytic substrate cleavage over time) ([2]; peptide 1.67E+01 uM): 5.5 and 6.4 and 3.4 | Slope normalized to DMSO (proteolytic substrate cleavage over time) ([2]; peptide 2.03E-03 uM): 85.0 and 86.2 and 80.9 | Slope normalized to DMSO (proteolytic substrate cleavage over time) ([2]; peptide 2.08E+00 uM): 8.2 and 8.0 and 6.0 | Slope normalized to DMSO (proteolytic substrate cleavage over time) ([2]; peptide 2.54E-04 uM): 94.8 and 90.7 and 91.8 | Slope normalized to DMSO (proteolytic substrate cleavage over time) ([2]; peptide 2.60E-01 uM): 20.1 and 21.2 and 15.6 | Slope normalized to DMSO (proteolytic substrate cleavage over time) ([2]; peptide 3.18E-05 uM): 99.5 and 101.3 and 96.2 | Slope normalized to DMSO (proteolytic substrate cleavage over time) ([2]; peptide 3.26E-02 uM): 58.6 and 59.5 and 55.9 | Slope normalized to DMSO (proteolytic substrate cleavage over time) ([2]; peptide 3.33E+01 uM): 4.9 and 6.5 and 3.7 | Slope normalized to DMSO (proteolytic substrate cleavage over time) ([2]; peptide 4.07E-03 uM): 77.2 and 73.8 and 74.9 | Slope normalized to DMSO (proteolytic substrate cleavage over time) ([2]; peptide 4.17E+00 uM): 6.8 (2×) and -8.2 | Slope normalized to DMSO (proteolytic substrate cleavage over time) ([2]; peptide 5.09E-04 uM): 92.2 and 90.6 and 87.0 | Slope normalized to DMSO (proteolytic substrate cleavage over time) ([2]; peptide 5.21E-01 uM): 12.0 and 12.9 and 10.7 | Slope normalized to DMSO (proteolytic substrate cleavage over time) ([2]; peptide 6.36E-05 uM): 97.8 and 99.0 and 94.4 | Slope normalized to DMSO (proteolytic substrate cleavage over time) ([2]; peptide 6.51E-02 uM): 36.9 and 38.0 and 37.1 | Slope normalized to DMSO (proteolytic substrate cleavage over time) ([2]; peptide 6.67E+01 uM): 5.7 and 6.9 and 3.2 | Slope normalized to DMSO (proteolytic substrate cleavage over time) ([2]; peptide 7.95E-06 uM): 102.6 and 104.4 and 98.4 | Slope normalized to DMSO (proteolytic substrate cleavage over time) ([2]; peptide 8.14E-03 uM): 67.4 and 67.8 and 64.3 | Slope normalized to DMSO (proteolytic substrate cleavage over time) ([2]; peptide 8.33E+00 uM): 6.5 and 6.4 and -9.8 | IC50 ([2]; single replicates R1-R3, read-out: IC50, rat alpha thrombin inhibition): 31.1 nM and 30.7 nM and 37.8 nM | Ki ([2]; single replicates R1-R3, read-out: Ki, rat alpha thrombin inhibition): 17.2 nM (2×) and 17 nM (2×) and 20.9 nM (2×) | SGF stability, Residual peptide Average ([3]; after 8 h vs 0 h (TIC), average of R1-R3): 98.71 | SGF stability, Residual peptide ([3]; after 8 h vs 0 h (TIC), single replicates R1-R3): 102.19 and 96.66 and 97.27 | remaining at 8 h ([3]; simulated gi fluid, 8 h, 37 °C, pH 1.2, read-out: Proteolytic stability: SGF (8 h) % remaining): 99 ± 3% | PAMPA permeability: % permeability ([4]; 50 μM, 12–18 h, acceptor concentration relative to equilibrium): 21 ± 8% | Papp at 50 μM ([4]; PAMPA, pH 7.4): 2.24 ×10⁻⁶ cm/s | Permeability% Average ([4]; top well sample vs theoretical equilibrium sample (TIC), average of R1-R3): 21.1% | Permeability% ([4]; top well sample vs theoretical equilibrium sample (TIC), single replicates R1-R3): 16.62% and 15.98% and 30.80% | TIC value of compound, 0 min, R1 ([5]; rat liver microsomes, 0 min, replicate R1): 23625921 | TIC value of compound, 0 min, R3 ([5]; rat liver microsomes, 0 min, replicate R3): 25801224 | TIC value of compound, 5 min, R1 ([5]; rat liver microsomes, 5 min, replicate R1): 20860918 | TIC value of compound, 5 min, R3 ([5]; rat liver microsomes, 5 min, replicate R3): 23019710 | TIC value of compound, 15 min, R1 ([5]; rat liver microsomes, 15 min, replicate R1): 12779197 | TIC value of compound, 15 min, R3 ([5]; rat liver microsomes, 15 min, replicate R3): 13375542 | TIC value of compound, 30 min, R1 ([5]; rat liver microsomes, 30 min, replicate R1): 7192264 | TIC value of compound, 30 min, R3 ([5]; rat liver microsomes, 30 min, replicate R3): 5638202 | TIC value of compound, 60 min, R1 ([5]; rat liver microsomes, 60 min, replicate R1): 1618321 | TIC value of compound, 60 min, R3 ([5]; rat liver microsomes, 60 min, replicate R3): 1784495 | microsomal CLint ([5]; CL (ul/min/mg protein), R1, RLM CL, replicate R1, unrounded): 79 µL/min/mg | microsomal CLint ([5]; CL (ul/min/mg protein), R2, RLM CL, replicate R2, unrounded): 90.4 µL/min/mg | microsomal CLint ([5]; CL (ul/min/mg protein), R3, RLM CL, replicate R3, unrounded): 88.3 µL/min/mg | half-life ([5]; Half Life (min), R1, RLM metabolic stability, replicate R1): 17.6 min | half-life ([5]; Half Life (min), R2, RLM metabolic stability, replicate R2): 15.3 min | half-life ([5]; Half Life (min), R3, RLM metabolic stability, replicate R3): 15.7 min | half-life ([5]; microsomes, Metabolic stability: Half life T1/2 (min), RLMs, mean and SD, three measurements): 16.2 ± 1 min | microsomal CLint ([5]; microsomes, Metabolic stability: RLM CL (ul/min/mg), RLMs, mean and SD, three measurements): 86 ± 5 µL/min/mg | microsomal CLint ([5]; microsomes, RLM CL, Average, average of R1-R3): 85.9 µL/min/mg | microsomal CLint ([5]; microsomes, RLM CL, R1, RLM CL, replicate R1, summary block): 79 µL/min/mg | microsomal CLint ([5]; microsomes, RLM CL, R2, RLM CL, replicate R2, summary block): 90.3 µL/min/mg | microsomal CLint ([5]; microsomes, RLM CL, R3, RLM CL, replicate R3, summary block): 88.3 µL/min/mg
